The source of these data is patent US20210300936A1, “PYRAZOLOTRIAZOLOPYRIMIDINE DERIVATIVES AS A2A RECEPTOR ANTAGONIST” (BEIGENE, LTD., priority 2018, published 2021).

This experiment addresses human A2A receptor (A2AR) (Homo sapiens, UniProt P29274). Put plainly: Luciferase reporter assay (HEK293-A2AR-luc2p/CRE/Hygro cells, 3 nM CGS21680). Type of experiment: cell-based. Conditions: 3 nM CGS21680, 5 h incubation. The method in brief:
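Antagonist (0.1–10000 nM) and 3 nM CGS21680 were co-added for 5 h to stable HEK293-A2AR-luc2p/CRE cells, 18 h after seeding in 1% FBS medium containing adenosine deaminase. Luminescence was normalized to agonist alone (100%), and IC50 came from the dose–inhibition curve.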
A general note: In a reporter assay the amount or activity of a reporter protein is the signal.

Chain of human A2A receptor (A2AR) (P29274 whole entry): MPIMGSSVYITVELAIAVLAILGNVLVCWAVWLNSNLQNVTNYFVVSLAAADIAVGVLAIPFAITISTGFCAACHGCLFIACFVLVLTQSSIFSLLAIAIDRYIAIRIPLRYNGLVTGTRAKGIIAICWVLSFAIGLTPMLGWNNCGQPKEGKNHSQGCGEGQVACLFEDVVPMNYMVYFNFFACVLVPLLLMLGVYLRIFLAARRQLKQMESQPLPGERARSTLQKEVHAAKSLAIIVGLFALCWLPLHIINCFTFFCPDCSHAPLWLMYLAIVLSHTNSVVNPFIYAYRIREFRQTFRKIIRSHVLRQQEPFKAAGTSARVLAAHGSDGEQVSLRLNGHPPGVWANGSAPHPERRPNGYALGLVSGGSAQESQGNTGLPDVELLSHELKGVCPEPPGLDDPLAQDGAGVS

On to `COCCOc1ccc(N2CCN(C(=O)C(C)n3ncc4c3nc(N)n3nc(-c5ccco5)nc43)CC2)cc1` (centres unmarked) [Compound A1, 2-(5-amino-2-(furan-2-yl)-7H-pyrazolo[4,3-e][1,2,4]triazolo[1,5-c]pyrimidin-7-yl)-1-(4-(4-(2-methoxyethoxy)phenyl)piperazin-1-yl)propan-1-one], for which half-maximal inhibition (IC50) required 42.9 nM. For `Nc1nc2c(cnn2C(C(=O)N2CCc3ncccc3C2)c2ccccc2)c2nc(-c3ccco3)nn12` (centres unmarked) [Compound B13, 2-(5-amino-2-(furan-2-yl)-7H-pyrazolo[4,3-e][1,2,4]triazolo[1,5-c]pyrimidin-7-yl)-1-(7,8-dihydro-1,6-naphthyridin-6(5H)-yl)-2-phenylethan-1-one] the value was 2.8 nM. For `COCCOc1ccc(N2CCN(C(=O)C(Cc3ccccc3)n3ncc4c3nc(N)n3nc(-c5ccco5)nc43)CC2)cc1` (centres unmarked) [Compound A19, 2-(5-amino-2-(furan-2-yl)-7H-pyrazolo[4,3-e][1,2,4]triazolo[1,5-c]pyrimidin-7-yl)-1-(4-(4-(2-methoxyethoxy)phenyl)piperazin-1-yl)-3-phenylpropan-1-one] the value was 6.5 nM; for `COc1cccc(N2CCN(C(=O)C(C)(c3ccccc3)n3ncc4c3nc(N)n3nc(-c5ccco5)nc43)CC2)c1` (centres unmarked) [Compound A77, 2-(5-amino-2-(furan-2-yl)-7H-pyrazolo[4,3-e][1,2,4]triazolo[1,5-c]pyrimidin-7-yl)-1-(4-(3-methoxyphenyl)piperazin-1-yl)-2-phenylpropan-1-one], 4.2 nM; for `Nc1nc2c(cnn2C(C(=O)N2CCN(c3ccc(F)cc3F)CC2)c2ccccc2)c2nc(-c3ccco3)nn12` (centres unmarked) [Compound A48, 2-(5-amino-2-(furan-2-yl)-7H-pyrazolo[4,3-e][1,2,4]triazolo[1,5-c]pyrimidin-7-yl)-1-(4-(2,4-difluorophenyl)piperazin-1-yl)-2-phenylethan-1-one], 1.6 nM.

Take `COCCOc1ccc(N2CCN(C(=O)C(CC(C)C)n3ncc4c3nc(N)n3nc(-c5ccco5)nc43)CC2)c(F)c1` (centres unmarked) [Compound A23, 2-(5-amino-2-(furan-2-yl)-7H-pyrazolo[4,3-e][1,2,4]triazolo[1,5-c]pyrimidin-7-yl)-1-(4-(2-fluoro-4-(2-methoxyethoxy)phenyl)piperazin-1-yl)-4-methylpentan-1-one]: the IC50 turned out to be 1.4 nM.

In turn, `Nc1nc2c(cnn2C(C(=O)N2CCc3c(F)cccc3C2)c2ccccc2)c2nc(-c3ccco3)nn12` (centres unmarked) [Compound B12, 2-(5-amino-2-(furan-2-yl)-7H-pyrazolo[4,3-e][1,2,4]triazolo[1,5-c]pyrimidin-7-yl)-1-(5-fluoro-3,4-dihydroisoquinolin-2(1H)-yl)-2-phenylethan-1-one] showed an IC50 of 2.5 nM. Then `CN(C)CCOc1ccc(N2CCN(C(=O)C(c3ccccc3)n3ncc4c3nc(N)n3nc(-c5ccco5)nc43)CC2)cc1` (centres unmarked) [Compound A37, 2-(5-amino-2-(furan-2-yl)-7H-pyrazolo[4,3-e][1,2,4]triazolo[1,5-c]pyrimidin-7-yl)-1-(4-(4-(2-(dimethylamino)ethoxy)phenyl)piperazin-1-yl)-2-phenylethan-1-one], with 2.5 nM; and `COCCOc1ccc(N2CCN(C(=O)C(c3ccccc3OC)n3ncc4c3nc(N)n3nc(-c5ccco5)nc43)CC2)cc1` (centres unmarked) [Compound A31, 2-(5-amino-2-(furan-2-yl)-7H-pyrazolo[4,3-e][1,2,4]triazolo[1,5-c]pyrimidin-7-yl)-1-(4-(4-(2-methoxyethoxy)phenyl)piperazin-1-yl)-2-(2-methoxyphenyl)ethan-1-one], with 0.6 nM. `CC(C)CC(C(=O)N1CCN(c2ccc(F)cc2F)CC1)n1ncc2c1nc(N)n1nc(-c3ccco3)nc21` (single isomer, unassigned) [Compound A22a] displayed a half-inhibitory concentration (IC50) of 246 nM. `COCCOc1ccc(N2CCN(C(=O)C(c3ccccc3)n3ncc4c3nc(N)n3nc(-c5ccco5)nc43)C[C@H]2C)cc1` (stereo partly drawn) [Compound A47, 2-(5-amino-2-(furan-2-yl)-7H-pyrazolo[4,3-e][1,2,4]triazolo[1,5-c]pyrimidin-7-yl)-1-((R)-4-(4-(2-methoxyethoxy)phenyl)-3-methylpiperazin-1-yl)-2-phenylethan-1-one]: half-maximal inhibition (IC50) was put at 2.8 nM. Then `C[C@](C(=O)N1CCN(c2ccc(OCCN3CCOCC3)cc2)CC1)(c1ccccc1)n1ncc2c1nc(N)n1nc(-c3ccco3)nc21` [Compound A80b, (R)-2-(5-amino-2-(furan-2-yl)-7H-pyrazolo[4,3-e][1,2,4]triazolo[1,5-c]pyrimidin-7-yl)-1-(4-(4-(2-morpholinoethoxy)phenyl)piperazin-1-yl)-2-phenylpropan-1-one], with 2.8 nM. Compound `CN(C)CCOc1ccc(N2CCN(C(=O)C(C)(c3ccccc3)n3ncc4c3nc(N)n3nc(-c5ccco5)nc43)CC2)cc1` (single isomer, unassigned) [Compound A71a] yielded an IC50 of 10.9 nM.

On to `CCC(C(=O)N1CCN(c2ccc(OCCOC)cc2)CC1)n1ncc2c1nc(N)n1nc(-c3ccco3)nc21` (centres unmarked) [Compound A4, 2-(5-amino-2-(furan-2-yl)-7H-pyrazolo[4,3-e][1,2,4]triazolo[1,5-c]pyrimidin-7-yl)-1-(4-(4-(2-methoxyethoxy)phenyl)piperazin-1-yl)butan-1-one], for which 43.5 nM corresponded to half-maximal inhibition (IC50). For `COCCOc1ccc(N2CCN(C(=O)C(C)(c3ccccc3)n3ncc4c3nc(N)n3nc(-c5nccnc5C)nc43)CC2)cc1` (centres unmarked) [Compound A95, 2-(5-amino-2-(3-methylpyrazin-2-yl)-7H-pyrazolo[4,3-e][1,2,4]triazolo[1,5-c]pyrimidin-7-yl)-1-(4-(4-(2-methoxyethoxy)phenyl)piperazin-1-yl)-2-phenylpropan-1-one] the value was 31.1 nM; for `COCCOc1ccc(N2CCN(C(=O)C(c3ccccc3)n3ncc4c3nc(N)n3nc(-c5ccco5)nc43)CC2C)cc1` (single isomer, unassigned) [Compound A47b], 0.2 nM; for `COCCOc1ccc(N2CCN(C(=O)C(C3CC3)n3ncc4c3nc(N)n3nc(-c5ccco5)nc43)CC2)cc1` (centres unmarked) [Compound A15, 2-(5-amino-2-(furan-2-yl)-7H-pyrazolo[4,3-e][1,2,4]triazolo[1,5-c]pyrimidin-7-yl)-2-cyclopropyl-1-(4-(4-(2-methoxyethoxy)phenyl)piperazin-1-yl)ethan-1-one], 8.4 nM. For `CCCC(C(=O)N1CCN(c2ccc(OCCN(C)C)cc2)CC1)n1ncc2c1nc(N)n1nc(-c3ccco3)nc21` (centres unmarked) [Compound A39, 2-(5-amino-2-(furan-2-yl)-7H-pyrazolo[4,3-e][1,2,4]triazolo[1,5-c]pyrimidin-7-yl)-1-(4-(4-(2-(dimethylamino)ethoxy)phenyl)piperazin-1-yl)pentan-1-one] the value was 5.3 nM; for `CC(C(=O)N1CCN(c2cccc(C(=O)N3CCCCC3)c2)CC1)(c1ccccc1)n1ncc2c1nc(N)n1nc(-c3ccco3)nc21` (centres unmarked) [Compound A89, 2-(5-amino-2-(furan-2-yl)-7H-pyrazolo[4,3-e][1,2,4]triazolo[1,5-c]pyrimidin-7-yl)-2-phenyl-1-(4-(3-(piperidine-1-carbonyl)phenyl)piperazin-1-yl)propan-1-one], 13.8 nM; for `COCCOc1ccc(N2CCN(C(=O)C(c3ccccc3OC)n3ncc4c3nc(N)n3nc(-c5ccco5)nc43)CC2)cc1` (single isomer, unassigned) [Compound A31a], 8.1 nM.

As usually defined, the IC50 is the point on the concentration scale where inhibition reaches its midpoint. A lower IC50 goes with greater potency.
